In patent publication US4831043A, “Dopaminergic benzimidazol-2-ones” (Roussel Uclaf, priority 1987, dated 1989):
Structures can show the parent of a compound that is named as a salt. Where two headings read alike, the source gives them in different places.

Key:
[1] = system: nigrostriated dopaminergic bundle; assay: Rotational behaviour after unilateral lesion of the nigrostriated bundle by 6-hydroxydopamine; assay type: in vivo, rats
Description: (1) Rotational behaviour after unilateral lesion of the nigrostriated bundle by 6-hydroxydopamine.
Male rats of about 220 g weight were injured in the nigrostriated dopaminergic bundle by a modified Ungerstedt's method [Acta. physiol. Scand. 1971, 82 suppl. 367-69 93] by unilateral injection of […] of 6-hydroxydopamine hydrochloride in solution in 4 microliters of physiological solution containing 0.4 mg/ml of ascorbic acid. The products studied were administered intraperitoneally and the treated animals were placed individually in a rotameter which enabled the counting of the number of rotations made by each animal in the direction opposite to that of the injured side.

[2] = system: average arterial pressure; assay: Test of revealing a direct vasodilatation activity (demedulated rats under angiotensine II perfusion); assay type: in vivo, Rats of Sprague-Dawley strain; details: Rattus norvegicus, intravenous cumulative doses, tested between 0.001 and 1 mg/kg, read-out: dose from which vasodilatation effect starts
Description: Rats of Sprague-Dawley strain with a weight of 320-350 g were anesthetized with pentobarbital (50 mg/kg by interperitoneal injection). After insertion of a carotid catheter to measure the arterial pressure and a jugular catheter for the injection of the compounds to be stidied as well as the eventual antagonists, the animals were demedulated by a steel rod which was introduced by the right orbital hole and passed down the whole length of the spinal marrow. The animals were then placed immediately under assisted respiration and some minutes after stabilization of arterial pressure, the animals received an intravenous perfusion of angiotensine II of 0.50 micrograms/kg per minute to increase their average pressure by about 100 mm of mercury. After obtaining a plateau, the test compound was injected intravenously every 2 minutes and in cumulative doses. The percentages of fall of the average arterial pressure so obtained enabled a curve of dose-response to be drawn reflecting the vasodilatation activity of the molecule studied. Previous treatment of the animals by different antagonists enabled the mechanism of action of this molecule to be distinguished. The products were tested between 0.001 and 1 mg/kg and domperidone and propanolol were used as antagonists.

mice = assay: Study of the acute toxicity (LDO, oral route); assay type: in vivo
Description: (3) Study of the acute toxicity
The lethal doses LDO of the different compounds tested were evaluated after administration by oral route in mice. The maximum dose not causing any mortality in 8 days was called LDO and the following results were obtained: […]

dopaminergic receptors = target: T1, dopaminergic receptors (Rattus norvegicus, UniProt P61169); assay: Affinity for the dopaminergic receptors (displacement of 3H spiroperidol, striated bodies); assay type: binding, rats
T1 construct: The striated bodies removed from the brains of 6 male rats; from tissue; host or cells: rat striatum (striated bodies), membrane preparation
T1 sequence (P61169 whole entry): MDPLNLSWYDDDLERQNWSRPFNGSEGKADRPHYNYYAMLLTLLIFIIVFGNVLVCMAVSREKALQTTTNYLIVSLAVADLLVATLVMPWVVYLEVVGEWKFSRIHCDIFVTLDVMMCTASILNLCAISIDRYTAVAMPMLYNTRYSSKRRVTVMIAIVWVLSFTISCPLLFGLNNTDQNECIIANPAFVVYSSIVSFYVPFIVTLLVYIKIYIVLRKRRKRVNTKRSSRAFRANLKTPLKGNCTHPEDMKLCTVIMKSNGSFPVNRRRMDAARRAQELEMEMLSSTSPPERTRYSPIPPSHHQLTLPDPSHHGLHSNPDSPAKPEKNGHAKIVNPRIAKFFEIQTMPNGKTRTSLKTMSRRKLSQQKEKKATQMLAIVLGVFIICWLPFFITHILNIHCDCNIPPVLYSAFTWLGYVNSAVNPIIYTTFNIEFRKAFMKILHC
Description: (4) Affinity for the dopaminergic receptors
The striated bodies removed from the brains of 6 male rats weighing an average of 150 g were homogenized to the twentieth (weight/volume) in 0.32M sucrose. After centrifuging the homogenized mixture at 1,000 g for 10 minutes at 0° C. the supernatant was centrifuged at 30,000 g for 15 minutes at +4° C. The residue was taken up in 25 ml of Tris HCl 50 mM buffer, pH 7.7, and centrifuged at 30,000 g for 15 minutes at +4° C. The new residue was taken up in 50 ml of Krebs Tris HCl buffer pH 7.3, and the suspension was pre-incubated fo 10 minutes at 37° C. It was then incubated for 20 minutes on a water-bath at +37° C. in the presence of 3H spinoperidol alone, with an excess of haloperidol and with increasing concentrations of the product under test. The incubated suspensions were filtered on Whatman GF/C and the filters were washed three times with 5 ml of Tris HCl 50 mM buffer. The radio-activity of the filters was measured by liquid scintillation.
The non-specific fixation were determined in parallel by incubation of 3H spiroperidol in the presence of an excess of haloperidol and the following results were obtained. The result was expressed directly in 50% inhibiting concentrations, (IC50 : concentration of product studied, expressed in nM, necessary to displace 50% of the specific radio-activity fixed on the receptor studied).

arterial pressure = assay: Study of the hypotensive activity on anesthetized "normotendu" rat; assay type: in vivo, Male Sprague-Dawley rats (CR); details: jugular vein injection
Description: (5) Study of the hypotensive activity on anesthetized "normotendu" rat.
Male Sprague-Dawley rats (CR) were anesthetized intraperitoneally with sodium pentobarbital (60 mg/Kg). A jugular vein was catheterized for injection of the product and a carotid artery was catheterized for registration of the arterial pressure. The product to be tested was dissolved in 10% of ethanol and then injected at a volume of 1 ml/kg. […] The following table indicates the variations of the arterial pressure after administration of the product tested expressed as a percentage of the initial control arterial pressure.

Question: How did the minimal effective dose ([1]; Rattus norvegicus, ip, read-out: dose from which rotational behavior is induced) turn out when CN1CCCC(c2ccc(O)c3[nH]c(=O)[nH]c23)C1 (stereo not shown) [Example 6, 1,3-dihydro-4-hydroxy-7-(1-methyl-3-piperidinyl)-2H-benzimidazol-3-one hydrobromide] was run?
Answer: 10 mg/kg

Question: What about the “rotational behavior (activity)” value ([1]; rats, intraperitoneal, dose of 5 mg/kg) of the same compound?
Answer: inactive

Question: And the “central dopaminergic agonist activity” value ([1]; rats, intraperitoneal, conclusion from rotation model of very great sensitivity)?
Answer: weak

Question: Which minimal effective dose [2] does the source give for Br.O=c1[nH]c2c(O)ccc(C3CCCNC3)c2[nH]1 (stereo not shown) [Example 4, 1,3-dihydro-4-hydroxy-7-(3-piperidinyl)-2H-benzimidazol-2-one hydrobromide] here?
Answer: 0.03 mg/kg

Question: And the “LDO (maximum dose not causing any mortality in 8 days)” value (mice)?
Answer: greater than 400 mg/kg

Question: And the IC50 (dopaminergic receptors)?
Answer: 300 nM

Question: And the “variation of the arterial pressure 30 min. after administration” value (arterial pressure; dose 0.1 mg/kg)?
Answer: -17 percentage of the initial cont

Question: Which results are given for Br.CCCN1CCCC(c2ccc(O)c3[nH]c(=O)[nH]c23)C1 (stereo not shown) [Example 5, 1,3-dihydro-4-hydroxy-7-(1-propyl-3-piperidinyl)-2H-benzimidazol-2-one hydrobromide]?
Answer: variation of the arterial pressure 5 min. after administration (arterial pressure; dose 1 mg/kg): -19 percentage of the initial cont; variation of the arterial pressure 30 min. after administration (arterial pressure; dose 1 mg/kg): -19 percentage of the initial cont; variation of the arterial pressure 5 min. after administration (arterial pressure; dose 10 mg/kg): -23 percentage of the initial cont; variation of the arterial pressure 30 min. after administration (arterial pressure; dose 10 mg/kg): -21 percentage of the initial cont

Question: With O=c1[nH]c2cccc(C3CCCNC3)c2[nH]1 (stereo not shown) [Example 1, 1,3-dihydro-4-(3-piperidinyl)-2H-benzimidazol-2-one] as the compound, how does the “LDO (maximum dose not causing any mortality in 8 days)” value (mice) read?
Answer: greater than 400 mg/kg

Question: And the IC50 (dopaminergic receptors; rat striated bodies, 3H spiroperidol, 20 minutes at 37° C., pH 7.3, read-out: IC50 (displacement of 50% of the specific radio-activity fixed on the receptor))?
Answer: 172 nM
